Measurements taken from US11667651B2, “Aminopyridine derivatives as phosphatidylinositol phosphate kinase inhibitors” (HiberCell, Inc., priority 2017, dated 2023).
pIC50: −log10 of the molar value.

What was measured:
PIP4K2B = target: T1, PIP4K2B (Homo sapiens, UniProt P78356); experiment: Trans-FI P kinase assay PIP4K2B (Table 4); type: biochemical; details: compounds listed under IC50 bins; read-out: Trans-FI P kinase assays: PIP4K2B IC50
T1 construct: made in house; host or cells: E. coli
T1 sequence (P78356 1-416): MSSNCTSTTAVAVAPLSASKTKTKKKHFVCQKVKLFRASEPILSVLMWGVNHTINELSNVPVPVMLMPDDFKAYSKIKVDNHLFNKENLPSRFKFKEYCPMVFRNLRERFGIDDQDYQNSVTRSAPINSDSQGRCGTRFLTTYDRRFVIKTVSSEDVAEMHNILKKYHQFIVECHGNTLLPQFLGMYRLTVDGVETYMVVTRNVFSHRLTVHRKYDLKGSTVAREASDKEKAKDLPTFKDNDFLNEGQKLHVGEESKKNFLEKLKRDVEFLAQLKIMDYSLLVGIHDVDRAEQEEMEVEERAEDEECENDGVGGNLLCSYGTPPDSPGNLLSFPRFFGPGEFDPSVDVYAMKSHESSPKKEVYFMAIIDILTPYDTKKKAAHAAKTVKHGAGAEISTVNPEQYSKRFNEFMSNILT
Description: GST tagged PIP4KtypeIIA and B enzymes were overexpressed in E. Coli and purified to >80% homogeneity. Phosphatidyl inositol-5-phosphate (PI5P, Cat. #850152, Avanti Polar Lipids Inc.) was used as the lipid substrate and phosphatidyl ethanolamine (DOPE 18:1, Cat. #850725, Avanti Polar Lipids Inc.) was used as the carrier lipid for assays. Ultrapure ATP and GTP was purchased from Bellbrooke Labs. ADP Glo reagents were obtained from Promega. Transcreener FI reagent was obtained from Bellbrooke labs.
GST-tagged PIP4KtypeIIB (3.4 μL, 2.77 mg/mL) was diluted to 5 mL using HNE buffer to yield 5× enzyme stock (25 nM)
Lipid Preparation: In a 10 mL pyrex glass vial, […] were suspended in 2.5 mL of HEPES buffer mix and 2.5 mL of H:E buffer. The contents were mixed and sonicated for 3 min to yield a translucent lipid stock.
Compound Preparation: Compounds were stored as 5 mM stocks in neat DMSO as room temperature in glass vials. 5 mM stocks were diluted to 2 mM and then serially diluted (3×) in neat DMSO in 96 well polypropylene plates. From the serially diluted stocks, 3 μL was delivered into 250 μL of 25% DMSO (in water) to generate 5× compound stocks. Typically, the highest compound conc. was 24 μM.
The assay volume was kept at 25 μL. To each well of the reaction plate, 10 μL of lipid stock (1:1 ratio PI5P:DOPE) was delivered. This was followed by the addition of 5 μL of compound in 25% DMSO. Then, to each well, 5 μL of 25 nM (5×) typeIIB enzyme was delivered. The contents were mixed well and incubated for 1 h at 27° C. After 1 h, reaction was initiated by adding 5 μL of 500 μM GTP and the contents were mixed well with a multi-channel pipetteman. The final concentration of the reagents are as follows: 50 mM HEPES, pH 7.3, 10 mM MgCl2, 20 mM NaCl, 0.01% v/v triton-X100, 5% DMSO, 100 μM GTP, 80 μM (2 μg) PI5P, 2 μg DOPE, and 5 nM PIP4KIIB Typically, the highest conc. of compounds was 4.8 μM and the lowest conc. was 0.
After 2 h, the reaction was quenched by adding 25 μL of transcreener FI reagent. The contents were incubated at rt for 1 h and the Fluorescence (Ex: 584 Em: 623) was read using Molecular Devices Paradigm plate reader. […] The blanks were averaged and subtracted from all other wells. Using a calibration curve, RFU was converted to μM GDP (product). IC50 was calculated by plotting the residual activity (expressed as % No inhibitor control) vs. log [Inh. conc.]

PIP4K2A = target: T2, PIP4K2A (Homo sapiens, UniProt P48426); experiment: Kinase Assay PIP4K2 A (Table 2); type: biochemical; design: 4 nM PIP4K2A (full length protein, SignalChem); purchased SignalChem; details: compounds listed under IC50 bins
T2 sequence (P48426 1-406): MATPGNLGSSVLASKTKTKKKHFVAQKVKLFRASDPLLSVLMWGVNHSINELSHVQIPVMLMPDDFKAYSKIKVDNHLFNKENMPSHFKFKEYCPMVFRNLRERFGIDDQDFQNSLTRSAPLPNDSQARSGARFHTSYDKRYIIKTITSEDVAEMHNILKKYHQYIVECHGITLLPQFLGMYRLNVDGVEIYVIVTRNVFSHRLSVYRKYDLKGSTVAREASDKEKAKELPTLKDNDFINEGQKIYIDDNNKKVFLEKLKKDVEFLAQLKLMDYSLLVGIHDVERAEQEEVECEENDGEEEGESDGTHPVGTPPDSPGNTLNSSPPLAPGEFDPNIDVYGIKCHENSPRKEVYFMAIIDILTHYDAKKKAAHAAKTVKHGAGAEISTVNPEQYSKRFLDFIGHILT
Method in brief: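 Full-length PIP4K2A (4 nM in the added mix, with 100 μM PI(5)P diC8) pre-incubated 15 min at RT with compounds (10-point, 3-fold series) in 20 mM MOPS pH 7.2, 25 mM MgCl2, 0.005% Tween 20. ATP added from a 60 μM solution, 1 h at RT; ADP-Glo luminescence, IC50 fitted from % inhibition versus DMSO.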

Row | Compound | pIC50 (PIP4K2B) | pIC50 (PIP4K2A)
1 | COCc1cc(Nc2cnc3c(c2)N2C(=O)CC[C@H]2CO3)ncc1-c1ccc(-c2nocc2C)cc1 [Example 282, (S)-2-((4-(methoxymethyl)-5-(4-(4-methylisoxazol-3-yl)phenyl)pyridin-2-yl)amino)-6,6a,7,8-tetrahydro-9H-pyrido[2,3-b]pyrrolo[1,2-d][1,4]oxazin-9-one] | 7.00 to 8.00 | 8.00 to 9.00
2 | Cc1conc1-c1ccc(-c2ccc(Nc3cnc4c(c3)N3C(=O)CC[C@H]3CO4)nc2)cc1 [Example 283, (S)-2-((5-(4-(4-methylisoxazol-3-yl)phenyl)pyridin-2-yl)amino)-6,6a,7,8-tetrahydro-9H-pyrido[2,3-b]pyrrolo[1,2-d][1,4]oxazin-9-one] | 7.00 to 8.00 | 8.00 to 9.00
3 | O=C1CCCN1c1ccc(-c2cnc(Nc3cnc4c(c3)N3C(=O)CC[C@H]3CO4)cc2OC2CCC2)cc1 [Example 284, (S)-2-((4-cyclobutoxy-5-(4-(2-oxopyrrolidin-1-yl)phenyl)pyridin-2-yl)amino)-6,6a,7,8-tetrahydro-9H-pyrido[2,3-b]pyrrolo[1,2-d][1,4]oxazin-9-one] | 8.00 to 9.00 | ≥ 9.00
4 | COc1nc(Nc2cnc3c(c2)N2C(=O)CC[C@H]2CO3)ncc1-c1ccc(-c2nncn2C)cc1 [Example 287, (S)-2-((4-methoxy-5-(4-(4-methyl-4H-1,2,4-triazol-3-yl)phenyl)pyrimidin-2-yl)amino)-6,6a,7,8-tetrahydro-9H-pyrido[2,3-b]pyrrolo[1,2-d][1,4]oxazin-9-one] | 8.00 to 9.00 | 8.00 to 9.00
5 | Cc1cnnn1-c1ccc(-c2ccc(Nc3cnc4c(c3)N3C(=O)CC[C@H]3CO4)nc2)cc1 [Example 289, (S)-2-((5-(4-(5-methyl-1H-1,2,3-triazol-1-yl)phenyl)pyridin-2-yl)amino)-6,6a,7,8-tetrahydro-9H-pyrido[2,3-b]pyrrolo[1,2-d][1,4]oxazin-9-one] | 8.00 to 9.00 | 8.00 to 9.00
6 | Cn1cnnc1-c1ccc(-c2ccc(Nc3cnc4c(c3)N3C(=O)CC[C@H]3CO4)nc2)cc1 [Example 291, (S)-2-((5-(4-(4-methyl-4H-1,2,4-triazol-3-yl)phenyl)pyridin-2-yl)amino)-6,6a,7,8-tetrahydro-9H-pyrido[2,3-b]pyrrolo[1,2-d][1,4]oxazin-9-one] | 7.00 to 8.00 | 7.00 to 8.00
7 | COCc1nc(Nc2cnc3c(c2)N2C(=O)CC[C@H]2CO3)ncc1-c1ccc(C(=O)N(C)C)cc1 [Example 293, (S)-4-(4-(methoxymethyl)-2-((9-oxo-6a,7,8,9-tetrahydro-6H-pyrido[2,3-b]pyrrolo[1,2-d][1,4]oxazin-2-yl)amino)pyrimidin-5-yl)-N,N-dimethylbenzamide] | 7.00 to 8.00 | 7.00 to 8.00

Next, values leading:

Row | pIC50 (PIP4K2B) | pIC50 (PIP4K2A) | Compound
8 | < 6.00 | < 6.00 | CN1CC2(CCN(c3ccc(Nc4cnc5c(c4)N4C(=O)CC[C@H]4CO5)nc3)CC2)OC1=O [Example 279, (S)-2-((5-(3-methyl-2-oxo-1-oxa-3,8-diazaspiro[4.5]decan-8-yl)pyridin-2-yl)amino)-6,6a,7,8-tetrahydro-9H-pyrido[2,3-b]pyrrolo[1,2-d][1,4]oxazin-9-one]
9 | 8.00 to 9.00 | ≥ 9.00 | O=C1CCCN1c1ccc(-c2cnc(Nc3cnc4c(c3)N3C(=O)CC[C@H]3CO4)nc2N2CCOCC2)cc1 [Example 280, (S)-2-((4-morpholino-5-(4-(2-oxopyrrolidin-1-yl)phenyl)pyrimidin-2-yl)amino)-6,6a,7,8-tetrahydro-9H-pyrido[2,3-b]pyrrolo[1,2-d][1,4]oxazin-9-one]
10 | 7.00 to 8.00 | 8.00 to 9.00 | CN1CCN(c2nc(Nc3cnc4c(c3)N3C(=O)CC[C@H]3CO4)ncc2-c2ccc(N3CCCC3=O)cc2)CC1 [Example 281, (S)-2-((4-(4-methylpiperazin-1-yl)-5-(4-(2-oxopyrrolidin-1-yl)phenyl)pyrimidin-2-yl)amino)-6,6a,7,8-tetrahydro-9H-pyrido[2,3-b]pyrrolo[1,2-d][1,4]oxazin-9-one]
11 | 7.00 to 8.00 | 7.00 to 8.00 | Cn1cnnc1-c1ccc(-c2cnc(Nc3cnc4c(c3)N3C(=O)CC[C@H]3CO4)cc2C2CC2)cc1 [Example 285, (S)-2-((4-cyclopropyl-5-(4-(4-methyl-4H-1,2,4-triazol-3-yl)phenyl)pyridin-2-yl)amino)-6,6a,7,8-tetrahydro-9H-pyrido[2,3-b]pyrrolo[1,2-d][1,4]oxazin-9-one]
12 | 8.00 to 9.00 | 8.00 to 9.00 | COC1CN(c2nc(Nc3cnc4c(c3)N3C(=O)CC[C@H]3CO4)ncc2-c2ccc(N3CCCC3=O)cc2)C1 [Example 286, (S)-2-((4-(3-methoxyazetidin-1-yl)-5-(4-(2-oxopyrrolidin-1-yl)phenyl)pyrimidin-2-yl)amino)-6,6a,7,8-tetrahydro-9H-pyrido[2,3-b]pyrrolo[1,2-d][1,4]oxazin-9-one]
13 | 8.00 to 9.00 | ≥ 9.00 | COc1nc(Nc2cnc3c(c2)N2C(=O)CC[C@H]2CO3)ncc1-c1ccc(-n2nncc2C)cc1 [Example 288, (S)-2-((4-methoxy-5-(4-(5-methyl-1H-1,2,3-triazol-1-yl)phenyl)pyrimidin-2-yl)amino)-6,6a,7,8-tetrahydro-9H-pyrido[2,3-b]pyrrolo[1,2-d][1,4]oxazin-9-one]
14 | 7.00 to 8.00 | 6.00 to 7.00 | O=C(COc1cccc2c1C(=O)N(C1CCC(=O)NC1=O)C2=O)NCCCC(=O)Nc1ccc(C(=O)Nc2cncc(Nc3ccc(-c4ccc(N5CCCC5=O)cc4)cn3)c2)cc1 (centres unmarked) [Example 292, 4-(4-(2-((2-(2,6-dioxopiperidin-3-yl)-1,3-dioxoisoindolin-4-yl)oxy)acetamido)butanamido)-N-(5-((5-(4-(2-oxopyrrolidin-1-yl)phenyl)pyridin-2-yl)amino)pyridin-3-yl)benzamide]
15 | 8.00 to 9.00 | 8.00 to 9.00 | COc1nc(Nc2cnc3c(c2)N2C(=O)CC[C@H]2CO3)ncc1-c1ccc(C(=O)N(C)C)cc1 [Example 294, (S)-4-(4-methoxy-2-((9-oxo-6a,7,8,9-tetrahydro-6H-pyrido[2,3-b]pyrrolo[1,2-d][1,4]oxazin-2-yl)amino)pyrimidin-5-yl)-N,N-dimethylbenzamide]
16 | 7.00 to 8.00 | 6.00 to 7.00 | O=C1CCC(N2C(=O)c3cccc(NCCOCCOCCOCC(=O)Nc4ccc(C(=O)Nc5cncc(Nc6ccc(-c7ccc(N8CCCC8=O)cc7)cn6)c5)cc4)c3C2=O)C(=O)N1 (centres unmarked) [Example 296, 4-(2-(2-(2-(2-((2-(2,6-dioxopiperidin-3-yl)-1,3-dioxoisoindolin-4-yl)amino)ethoxy)ethoxy)ethoxy)acetamido)-N-(5-((5-(4-(2-oxopyrrolidin-1-yl)phenyl)pyridin-2-yl)amino)pyridin-3-yl)benzamide]
